# From US10968462B2, “Plants having increased tolerance to herbicides” (BASF AGRO B.V., priority 2013, dated 2021)
# Test system: transgenic T2 soybean plants
# Test: Soybean greenhouse spray test, T2 plants at V2-V3 stage, injury 0-9 point scale 1 or 2 weeks after treatment (Tables 7C-7E)
# Type: in vivo, Glycine max
# Conditions: 2 week after treatment
# Protocol: Soybean cv Jake was transformed as previously described by Siminszky et al., Phytochem Rev. 5:445-458 (2006). After regeneration, transformants were transplanted to soil in small pots, placed in growth chambers (16 hr day/8 hr night; 25° C. day/23° C. night; 65% relative humidity; 130-150 microE m-2 s-1) and subsequently tested for the presence of the T-DNA via Taqman analysis. After a few weeks, healthy, transgenic positive, single copy events were transplanted to larger pots and allowed to grow in the growth chamber. An optimal shoot for cutting was about 3-4 inches tall, with at least two nodes present. Each cutting was taken from the original transformant (mother plant) and dipped into rooting hormone powder (indole-3-butyric acid, IBA). The cutting was then placed in oasis wedges inside a bio-dome. The mother plant was taken to maturity in the greenhouse and harvested for seed. Wild type cuttings were also taken simultaneously to serve as negative controls. The cuttings were kept in the bio-dome for 5-7 days and then transplanted to 3 inch pots and then acclimated in the growth chamber for two more days. […] Other herbicides, such as AHAS (ALS—Acetolactate Synthase) inhibiting herbicides were also tested in a similar fashion for confirming cross resistance to other modes of action: Tritosulfuron, Florasulam, Metsulfuron, Rimsulfuron. Herbicide injury evaluations were taken at 2, 7, 14 and 21 days after treatment.
# • 0 No Injury • 1 Minimal injury, only a few patches of leaf injury or chlorosis. • 2 Minimal injury with slightly stronger chlorosis. Overall growth points remain undamaged. • 3 Slightly stronger injury on secondary leaf tissue, but primary leaf and growth points are still undamaged. • 4 Overall plant morphology is slightly different, some chlorosis and necrosis in secondary growth points and leaf tissue. Stems are intact. Regrowth is highly probable within 1 week. • 5 Overall plant morphology is clearly different, some chlorosis and necrosis on a few leaves and growth points, but primary growth point is intact. Stem tissue is still green. Regrowth is highly probably within 1 week. • 6 Strong injury can be seen on the new leaflet growth. Plant has a high probability to survive only through regrowth at different growth points. Most of the leaves are chlorotic/necrotic but stem tissue is still green. May have regrowth but with noticeable injured appearance. • 7 Most of the active growth points are necrotic. There may be a single growth point that could survive and may be partially chlorotic or green and partially necrotic. Two leaves may still be chlorotic with some green; the rest of the plant including stem is necrotic. • 8 Plant will likely die, and all growth points are necrotic. One leaf may still be chlorotic with some green. The remainder of the plant is necrotic. • 9 Plant is dead. • * Not tested
compound,measurement,setting,value
COc1nc(C)nc(=NC(=O)NS(=O)(=O)c2ccccc2C(=O)O)[nH]1 [Metsulfuron],injury on a 0-9 point scale,"Bradi_1g07930.1 (Event 1), 1.05 g ai/ha",1.0
same,injury on a 0-9 point scale,"Bradi_1g07930.1 (Event 1), 2.1 g ai/ha",0.7
same,injury on a 0-9 point scale,"Bradi_1g07930.1 (Event 1), 4.2 g ai/ha",2.3
same,injury on a 0-9 point scale,"Bradi_1g07930.1 (Event 1), 8.4 g ai/ha",3.3
same,injury on a 0-9 point scale,"R128A_F420V (Event 1), 1.05 g ai/ha",8.0
same,injury on a 0-9 point scale,"R128A_F420V (Event 1), 2.1 g ai/ha",8.0
same,injury on a 0-9 point scale,"R128A_F420V (Event 1), 4.2 g ai/ha",8.0
same,injury on a 0-9 point scale,"R128A_F420V (Event 1), 8.4 g ai/ha",8.7
same,injury on a 0-9 point scale,"R128A_F420V (Event 2), 1.05 g ai/ha",8.0
same,injury on a 0-9 point scale,"R128A_F420V (Event 2), 2.1 g ai/ha",9.0
same,injury on a 0-9 point scale,"R128A_F420V (Event 2), 4.2 g ai/ha",8.7
same,injury on a 0-9 point scale,"R128A_F420V (Event 2), 8.4 g ai/ha",9.0
same,injury on a 0-9 point scale,"R128A_F420V + Bradi_1g07930.1 (Event 1), 1.05 g ai/ha",2.7
same,injury on a 0-9 point scale,"R128A_F420V + Bradi_1g07930.1 (Event 1), 2.1 g ai/ha",3.0
same,injury on a 0-9 point scale,"R128A_F420V + Bradi_1g07930.1 (Event 1), 4.2 g ai/ha",4.0
same,injury on a 0-9 point scale,"R128A_F420V + Bradi_1g07930.1 (Event 1), 8.4 g ai/ha",4.3
same,injury on a 0-9 point scale,"R128A_F420V + Bradi_1g07930.1 (Event 2), 1.05 g ai/ha",3.0
same,injury on a 0-9 point scale,"R128A_F420V + Bradi_1g07930.1 (Event 2), 2.1 g ai/ha",3.7
same,injury on a 0-9 point scale,"R128A_F420V + Bradi_1g07930.1 (Event 2), 4.2 g ai/ha",3.0
same,injury on a 0-9 point scale,"R128A_F420V + Bradi_1g07930.1 (Event 2), 8.4 g ai/ha",3.0
same,injury on a 0-9 point scale,"wild type, 1.05 g ai/ha",8.5
same,injury on a 0-9 point scale,"wild type, 2.1 g ai/ha",8.3
same,injury on a 0-9 point scale,"wild type, 4.2 g ai/ha",8.8
same,injury on a 0-9 point scale,"wild type, 8.4 g ai/ha",8.5
COc1ncc(F)c2nc(S(=O)(=O)Nc3c(F)cccc3F)nn12 [Flurasulam],injury on a 0-9 point scale,"Bradi_1g07930.1 (Event 1), 0.156 g ai/ha",0.3
same,injury on a 0-9 point scale,"Bradi_1g07930.1 (Event 1), 0.3125 g ai/ha",0.5
same,injury on a 0-9 point scale,"Bradi_1g07930.1 (Event 1), 0.625 g ai/ha",2.5
same,injury on a 0-9 point scale,"Bradi_1g07930.1 (Event 1), Flurasulam 1.25 g ai/ha",3.0
same,injury on a 0-9 point scale,"Bradi_1g07930.1 (Event 1), Flurasulam 2.5 g ai/ha",1.7
same,injury on a 0-9 point scale,"Bradi_1g07930.1 (Event 1), Flurasulam 5 g ai/ha",3.3
same,injury on a 0-9 point scale,"R128A_F420V (Event 1), 0.156 g ai/ha",0.0
same,injury on a 0-9 point scale,"R128A_F420V (Event 1), 0.3125 g ai/ha",3.3
same,injury on a 0-9 point scale,"R128A_F420V (Event 1), 0.625 g ai/ha",3.5
same,injury on a 0-9 point scale,"R128A_F420V (Event 1), Flurasulam 1.25 g ai/ha",4.5
same,injury on a 0-9 point scale,"R128A_F420V (Event 1), Flurasulam 2.5 g ai/ha",6.8
same,injury on a 0-9 point scale,"R128A_F420V (Event 1), Flurasulam 5 g ai/ha",6.5
same,injury on a 0-9 point scale,"R128A_F420V (Event 2), 0.156 g ai/ha",1.0
same,injury on a 0-9 point scale,"R128A_F420V (Event 2), 0.3125 g ai/ha",1.0
same,injury on a 0-9 point scale,"R128A_F420V (Event 2), 0.625 g ai/ha",3.5
same,injury on a 0-9 point scale,"R128A_F420V (Event 2), Flurasulam 1.25 g ai/ha",5.0
same,injury on a 0-9 point scale,"R128A_F420V (Event 2), Flurasulam 2.5 g ai/ha",6.0
same,injury on a 0-9 point scale,"R128A_F420V (Event 2), Flurasulam 5 g ai/ha",6.0
same,injury on a 0-9 point scale,"R128A_F420V + Bradi_1g07930.1 (Event 1), 0.156 g ai/ha",1.5
same,injury on a 0-9 point scale,"R128A_F420V + Bradi_1g07930.1 (Event 1), 0.3125 g ai/ha",2.3
same,injury on a 0-9 point scale,"R128A_F420V + Bradi_1g07930.1 (Event 1), 0.625 g ai/ha",3.0
same,injury on a 0-9 point scale,"R128A_F420V + Bradi_1g07930.1 (Event 1), Flurasulam 1.25 g ai/ha",3.5
same,injury on a 0-9 point scale,"R128A_F420V + Bradi_1g07930.1 (Event 1), Flurasulam 2.5 g ai/ha",3.3
same,injury on a 0-9 point scale,"R128A_F420V + Bradi_1g07930.1 (Event 1), Flurasulam 5 g ai/ha",2.5
same,injury on a 0-9 point scale,"R128A_F420V + Bradi_1g07930.1 (Event 2), 0.156 g ai/ha",3.3
same,injury on a 0-9 point scale,"R128A_F420V + Bradi_1g07930.1 (Event 2), 0.3125 g ai/ha",3.0
same,injury on a 0-9 point scale,"R128A_F420V + Bradi_1g07930.1 (Event 2), 0.625 g ai/ha",3.0
same,injury on a 0-9 point scale,"R128A_F420V + Bradi_1g07930.1 (Event 2), Flurasulam 1.25 g ai/ha",3.5
same,injury on a 0-9 point scale,"R128A_F420V + Bradi_1g07930.1 (Event 2), Flurasulam 2.5 g ai/ha",3.0
same,injury on a 0-9 point scale,"R128A_F420V + Bradi_1g07930.1 (Event 2), Flurasulam 5 g ai/ha",3.5
same,injury on a 0-9 point scale,"wild type, 0.156 g ai/ha",0.3
same,injury on a 0-9 point scale,"wild type, 0.3125 g ai/ha",3.0
same,injury on a 0-9 point scale,"wild type, 0.625 g ai/ha",4.0
same,injury on a 0-9 point scale,"wild type, Flurasulam 1.25 g ai/ha",5.5
same,injury on a 0-9 point scale,"wild type, Flurasulam 2.5 g ai/ha",6.0
same,injury on a 0-9 point scale,"wild type, Flurasulam 5 g ai/ha",7.5
